Results published in the METLIN SMRT retention time set (Domingo-Almenara et al. 2019).

Assay: gradient 5% acetonitrile 3 min, to 50% in 2 min, to 85% in 15 min, held 3 min, 100 µL/min
Conditions: column: Zorbax Extend-C18 2.1 x 50 mm; eluents: water / acetonitrile, 0.1% formic acid
How it was run: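 Mixtures of ~100 pure standards were chromatographed on a Zorbax Extend-C18 column (2.1 × 50 mm, 1.8 μm) at 100 μL/min using water and acetonitrile, each with 0.1% formic acid. Detection used a quadrupole time-of-flight mass spectrometer in positive and negative ionization mode, and data collection spanned 3 months. Retention time was obtained from adduct peaks picked computationally and each checked manually.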

Compound: CC1CCc2c(sc3ncnc(SCC(=O)N4CCOCC4)c23)C1 (stereo not given)
- RP-LC retention time: 860 s

Compound: CN(C)C(=O)c1ccc2c(c1)N(CC(=O)N1CCN(c3ccccc3)CC1)C(=O)CO2
- RP-LC retention time: 689 s

Compound: CCOC(=O)c1cccc(NS(=O)(=O)c2c(C)nn(-c3ccc(-c4ccccc4)nn3)c2C)c1
- RP-LC retention time: 1070 s

Compound: O=C(Cc1cccs1)Nc1nnc(SCc2ccc([N+](=O)[O-])cc2)s1
- RP-LC retention time: 861 s

Compound: Cn1cc(-c2nc(C(=O)Nc3ccc(Cl)cc3)cs2)c2cccnc21
- RP-LC retention time: 1090 s

Compound: CCN1CCCn2cc(S(=O)(=O)N(CC)c3ccccc3)cc2C1=O
- RP-LC retention time: 780 s

Compound: CCCCNC(=O)NC1CCS(=O)(=O)C1 (stereo not given)
- RP-LC retention time: 571 s

Compound: Cc1nc2cccnc2n1CC1CCCN(S(=O)(=O)c2ccc3c(c2)OCCO3)C1 (stereo not given)
- RP-LC retention time: 672 s

Compound: COC(=O)c1cc(C)nc2c1c(=O)n(Cc1ccc(Cl)cc1)c(=O)n2C
- RP-LC retention time: 1080 s

Compound: O=C(NCc1cc(F)ccc1F)C1CCN(c2nnc(-c3ccccc3)o2)CC1
- RP-LC retention time: 819 s

Compound: CN1C(=O)c2cc(C(=O)NCc3ccccc3)nn2CC1(C)C(=O)NC1CCCCC1 (stereo not given)
- RP-LC retention time: 761 s

Compound: O=C(c1cccc2ccccc12)N1CCN(c2ccc(Nc3ccncc3)nn2)CC1
- RP-LC retention time: 554 s

Compound: O=C(c1nc(-c2ccnc(N3CCOCC3)c2)no1)N1CCN(C2CCCCC2)CC1
- RP-LC retention time: 608 s

Compound: CN1CCCn2cc(S(=O)(=O)Nc3ccc(F)cc3Cl)cc2C1=O
- RP-LC retention time: 696 s

Compound: CC(C)NC(=O)NCCC1CCN(S(=O)(=O)c2ccc(F)cc2)CC1
- RP-LC retention time: 782 s

Compound: CCn1c(N2CCCC(C(=O)N3CCN(Cc4ccc5c(c4)OCO5)CC3)C2)cc(=O)n(C)c1=O (stereo not given)
- RP-LC retention time: 616 s

Compound: Cn1c(N2CCN(C(=O)c3ccccc3Br)CC2)cc(=O)n(C)c1=O
- RP-LC retention time: 668 s

Compound: CCOc1ccc(OCC)c(NC(=O)C2CCCN(C(=O)c3cc(-c4ccccn4)n[nH]3)C2)c1 (stereo not given)
- RP-LC retention time: 775 s

Compound: O=C(Cn1c(=O)c2cccn2c2ccccc21)Nc1ccccc1F
- RP-LC retention time: 824 s

Compound: Cc1ccc(CNC(=O)c2ccc3c(c2)CN(Cc2scnc2C)CCO3)cc1
- RP-LC retention time: 648 s

Compound: COc1ccc(N2CCN(C(=O)c3[nH]c(C)c(S(=O)(=O)N4CCOCC4)c3C)CC2)cc1
- RP-LC retention time: 703 s

Compound: CN(C)CCNC(=O)c1ccc2c(c1)N(Cc1ccccc1)CCS2
- RP-LC retention time: 689 s

Compound: Cc1cccc(-c2noc(C3CCCN3C(=O)Nc3ccc4c(c3)OCO4)n2)c1 (stereo not given)
- RP-LC retention time: 961 s

Compound: CCc1ccc(-n2ncc3c(=O)n(Cc4nc(-c5ccccc5)no4)cnc32)cc1
- RP-LC retention time: 1160 s

Compound: Cc1nc(C(=O)NCc2ccccc2C(F)(F)F)c(C)o1
- RP-LC retention time: 917 s

Compound: O=C(NC1CCN(c2cc(-c3cccnc3)[nH]n2)CC1)c1ccc2cc[nH]c2c1
- RP-LC retention time: 616 s

Compound: O=C(Cc1cccc(F)c1)NCC(=O)Nc1nc2ccccc2[nH]1
- RP-LC retention time: 623 s

Compound: O=C(CS(=O)Cc1cnn(-c2ccccc2)c1-n1cccc1)N1CCC(Cc2ccccc2)CC1 (stereo not given)
- RP-LC retention time: 1010 s

Compound: COc1cc(C(=O)N2CCC(CC(=O)N3CCN(c4ccccn4)CC3)CC2)cc(OC)c1OC
- RP-LC retention time: 595 s

Compound: O=C(Nc1ccccc1)c1cn(CC2CCCO2)cc2c(=O)n(-c3ccccc3)nc1-2 (stereo not given)
- RP-LC retention time: 993 s

Compound: Cc1ccc(-c2nnc(-c3nn(C)c4c3CN(S(=O)(=O)c3cc(F)ccc3C)CC4)o2)cc1
- RP-LC retention time: 1050 s

Compound: CCOc1nccnc1N1CCC(NC(=O)Cc2cccs2)C1 (stereo not given)
- RP-LC retention time: 921 s

Compound: COc1ccc(Cl)cc1NC(=O)NCCc1nc2cccnc2n1CC(C)C
- RP-LC retention time: 770 s

Compound: Cc1ccc(C)c(N2CCN(C(=O)C3CCCN(c4nc5ccccc5n(C)c4=O)C3)CC2)c1 (stereo not given)
- RP-LC retention time: 1280 s

Compound: Cn1cc(CC(=O)NCc2cccc(F)c2)c2cccnc21
- RP-LC retention time: 669 s

Compound: CCc1c(C(=O)O)nnn1-c1ccc(C)c(C)c1
- RP-LC retention time: 783 s

Compound: COc1cccc(C(=O)N2CCC3(CC2)NC(=O)c2cc(Cl)ccc2N3C)c1
- RP-LC retention time: 800 s

Compound: COc1ccc(OC)c(CNC(=O)c2cn3cc(C)ccc3n2)c1
- RP-LC retention time: 694 s

Compound: COC(=O)C1=CN(c2ccc(OC)cc2)c2ccccc2S1(=O)=O
- RP-LC retention time: 819 s

Compound: COCCSc1nnc(NC(=O)C2CCN(C(=O)c3ccccc3Cl)CC2)s1
- RP-LC retention time: 743 s

Compound: CCN(C(=O)c1cc2c(s1)N(C)CCCC2)C(C)C
- RP-LC retention time: 1020 s

Compound: CCn1c(=O)sc2cc(S(=O)(=O)N3CCC(C(=O)N4CCN(C)CC4)CC3)ccc21
- RP-LC retention time: 600 s

Compound: Fc1ccc(Cn2cc(-c3noc(-c4cccc(F)c4)n3)nn2)cc1
- RP-LC retention time: 1010 s

Compound: Cc1csc(NC(=O)C2CCN(S(=O)(=O)c3cc(C(=O)N4CCCC4)n(C)c3)CC2)n1
- RP-LC retention time: 697 s

Compound: Cc1ccn2c(NC(=O)C(C)(C)Oc3ccc(Cl)cc3)c(-c3ccccc3)nc2c1
- RP-LC retention time: 804 s

Compound: CNC(=O)Nc1ccc(C2(C(=O)NCc3ccco3)CCC2)cc1
- RP-LC retention time: 670 s

Compound: COC(=O)c1cccc(NC(=O)NCCCn2c(C(F)(F)F)nc3cccnc32)c1
- RP-LC retention time: 773 s

Compound: COc1ccc(-n2ccc(=O)c(-c3nc(-c4ccccc4OC)no3)n2)cc1
- RP-LC retention time: 776 s

Compound: O=C(c1ccc2ccccc2n1)N1CCN(c2cc(-c3cccs3)[nH]n2)CC1
- RP-LC retention time: 752 s

Compound: O=S(=O)(c1ccccc1Cl)N1CC(c2nc(Cc3ccccc3)no2)C1
- RP-LC retention time: 951 s

Compound: O=C(Cc1csc2nc(-c3ccccc3)cn12)Nc1ccc(F)cc1
- RP-LC retention time: 774 s

Compound: COc1ccc(-c2c(C)noc2NC(C)=O)cc1S(=O)(=O)N1CCc2ccccc21
- RP-LC retention time: 784 s

Compound: CC(NC(=O)C(=O)N1CCCCC1)C(c1cccs1)N1CCN(c2ccc(F)cc2)CC1 (stereo not given)
- RP-LC retention time: 760 s

Compound: Cc1cccc(NC(=O)C2CCN(S(C)(=O)=O)c3cc(Cl)ccc3O2)c1 (stereo not given)
- RP-LC retention time: 1020 s

Compound: Cc1cc(C)cc(Oc2nccn3c(=O)n(CC(=O)Nc4c(C)cccc4C)nc23)c1
- RP-LC retention time: 906 s

Compound: CCCCN(C)S(=O)(=O)c1c(C)nn(-c2ccc(-c3ccccc3)nn2)c1C
- RP-LC retention time: 1160 s

Compound: CC(=O)N(CC(=O)N1CCc2sccc2C1COc1ccc(F)cc1)C(C)C (stereo not given)
- RP-LC retention time: 805 s

Compound: CCCCC(=O)Nc1ccc2nc(N3CCN(CCC)CC3)cc(C(=O)O)c2c1
- RP-LC retention time: 590 s

Compound: COC(=O)C1CCN(C(=O)c2cccnc2-c2nc3ccccc3s2)CC1
- RP-LC retention time: 747 s

Compound: COC(=O)c1cnc2nc(C)ccc2c1Nc1ccc(OC)c(Cl)c1
- RP-LC retention time: 682 s

Compound: CC(=O)Nc1ccc(SCCCC(=O)Nc2cccc(C)n2)nn1
- RP-LC retention time: 562 s

Compound: CN1CCN(c2c(C(=O)c3ccccc3)cnc3cc4c(cc23)OCCO4)CC1
- RP-LC retention time: 551 s

Compound: O=C(Nc1ccccc1)N1CCCC(c2nnnn2-c2ccccc2)C1 (stereo not given)
- RP-LC retention time: 820 s

Compound: O=C(c1sc2cc(F)ccc2c1Cl)N1CCN(c2ccccn2)CC1
- RP-LC retention time: 693 s

Compound: CCOc1ccc(CCNC(=O)c2ccc(-n3cnc(NC(=O)C4CC4)c3)cc2)cc1OCC
- RP-LC retention time: 748 s

Compound: CCCC(NC(=O)c1ccccn1)C(=O)Nc1nc2ccccc2[nH]1 (stereo not given)
- RP-LC retention time: 670 s

Compound: CCCCS(=O)(=O)N1CCc2nc(-c3ccccc3)ncc2C1
- RP-LC retention time: 970 s

Compound: O=C(Cc1ccc(Cl)cc1)NCCOc1ccccc1
- RP-LC retention time: 844 s

Compound: CSc1ccc(NC(=O)N2CCN(C3=CC4=NCC(C)N4C=N3)CC2)cc1 (stereo not given)
- RP-LC retention time: 638 s

Compound: COc1ccc(CNC(=O)C2=C3CCCN3c3ccccc3S2(=O)=O)c(OC)c1
- RP-LC retention time: 835 s

Compound: Cn1nnnc1C1CCCN(C(=O)C2CCCC2)C1 (stereo not given)
- RP-LC retention time: 665 s

Compound: O=S(=O)(c1ccc(-c2noc(COc3ccc(Cl)cc3)n2)cc1)N1CCCC1
- RP-LC retention time: 1170 s

Compound: Cc1ccn2cc(C(=O)N3CCN(c4ccccc4F)CC3)nc2c1
- RP-LC retention time: 662 s

Compound: COCc1c(C(=O)O)nnn1-c1cccc(Br)c1
- RP-LC retention time: 729 s

Compound: Cc1nc(-c2noc(-c3ccncc3)n2)cn1CC(=O)Nc1ccc(Cl)cc1
- RP-LC retention time: 731 s

Compound: Cc1cc(=O)n(CC(=O)Nc2cccc(F)c2)c(N2CCOCC2)n1
- RP-LC retention time: 666 s

Compound: O=C(C1CC1)N1CCC(c2noc(-c3cnccn3)n2)C1 (stereo not given)
- RP-LC retention time: 621 s

Compound: CC(C)N1C(=O)c2cccnc2Sc2cc(NC(=O)c3ccccc3Cl)ccc21
- RP-LC retention time: 871 s

Compound: Cc1cc(C)nc(SCC(=O)Nc2ncc(Cc3ccc(Cl)cc3)s2)n1
- RP-LC retention time: 942 s

Compound: COc1ccc(C2=CC(c3ccc(OC)c(OC)c3)c3c(c4ccccc4oc3=O)O2)cc1OC (stereo not given)
- RP-LC retention time: 1140 s

Compound: Cc1ccc(CNC(=O)N2CCC3(C2)C(=O)N(C)c2ccccc23)cc1 (stereo not given)
- RP-LC retention time: 797 s

Compound: O=C(Cn1ccc2ccccc21)NCc1n[nH]c(=O)c2ccccc12
- RP-LC retention time: 657 s

Compound: COc1ccc(OCC(O)CN2CCN(c3ccc(Cl)cc3)CC2)cc1 (stereo not given)
- RP-LC retention time: 795 s

Compound: Cc1cc(C)c(S(=O)(=O)N2CCCCC2)c(C)c1[N+](=O)[O-]
- RP-LC retention time: 1040 s

Compound: CC(C)c1cc(C(=O)Nc2cc(F)cc(F)c2)nc2ccnn12
- RP-LC retention time: 1180 s

Compound: CC(C)c1ccc(NC(=O)N2CCN(c3ccc4nncn4n3)CC2)cc1
- RP-LC retention time: 672 s

Compound: O=c1cc(-c2ccc(F)cc2)ncn1Cc1cccc(C(F)(F)F)c1
- RP-LC retention time: 940 s

Compound: COc1ccc(OCc2ccc(C(=O)Nc3ccc4c(c3)OCO4)o2)cc1
- RP-LC retention time: 879 s

Compound: CCn1cc(C2=CCN(S(=O)(=O)c3cccc(C)c3)CC2)c2cccnc21
- RP-LC retention time: 1040 s

Compound: CCOc1ccc(CC(=O)N2CCCC2c2cc(C)on2)cc1 (stereo not given)
- RP-LC retention time: 822 s
